“Also recorded” adds a separate entry of the source. Blank lines part the entries; values can stand above or below the compound they belong to.
Columns and labels:
IDO2 = molecular target: T1, IDO2 (Mus musculus, UniProt Q8R0V5); assay: Cell-based kynurenine detection assay in IDO2 expressing T-REx cells; set-up: species or system murine; conditions: doxycycline-induced T-REx cells, increasing concentrations, 5 days (FIG. 8B)
T1 construct: The complete coding regions of murine IDO1 and IDO2 were cloned in-frame with the V5/His TAG coding region in pcDNA4/TO; expressed in transfected cells; host or cells: T-REx-293 cells (Invitrogen), pcDNA4/TO-muIDO2, doxycycline-induced
T1 sequence (Q8R0V5 1-405): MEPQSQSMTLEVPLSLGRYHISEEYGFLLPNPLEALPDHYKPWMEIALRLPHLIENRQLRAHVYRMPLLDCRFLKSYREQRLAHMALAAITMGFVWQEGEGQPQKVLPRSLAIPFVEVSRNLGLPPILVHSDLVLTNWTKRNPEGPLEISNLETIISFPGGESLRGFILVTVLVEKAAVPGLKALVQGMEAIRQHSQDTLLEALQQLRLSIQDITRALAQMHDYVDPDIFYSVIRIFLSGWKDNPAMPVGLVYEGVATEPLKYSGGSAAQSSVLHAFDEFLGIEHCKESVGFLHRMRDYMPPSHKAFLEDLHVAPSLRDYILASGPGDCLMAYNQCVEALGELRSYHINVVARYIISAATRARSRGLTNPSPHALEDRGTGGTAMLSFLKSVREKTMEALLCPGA
Experimental: This assay measures the product of the indoleamine 2,3-dioxygenase conversion of L-tryptophan to N-formyl-kynurenine by acid hydrolysis to kynurenine, which is measured indirectly though the absorbance (480 nm) of imine produced by the reaction of the aromatic amino group of klynurenine with p-dimethylaminobenzaldehyde (Ehrlich's reagent) as described by Takikawa et al. (J. Biol. Chem. (1988) 263:2041-2048). Typically, 200 μL of media from the test sample is combined with 12.5 μL of 30% TCA and incubated at 50° C. for 30 minutes. Evaporation was avoided by sealing the rim of the plate or tubes with parafilm. Samples are clarified by centrifugation for 10 minutes at 3-10K rpm. 100 μL of the supernatant was removed to a fresh well in an assay plate and mixed with 100 μL of fresh Ehrlich's reagent (2% p-dimethylaminobenzaldehyde w/v with glacial acetic acid). The plates were incubated for 10-30 minutes at room temperature and the absorbance was read at 490 nm. Typically, assays were performed in triplicate and the data analyzed using Excel software program (Microsoft). […] Typically, control values were averaged and subtracted from the sample values. The complete coding regions of murine IDO1 and IDO2 were cloned in-frame with the […] TAG coding region in pcDNA4/TO (Invitrogen) which contains a regulatory region that is repressed by the tetracyclin regulated repressor (TetR). The complete coding regions of IDO1 and IDO2 were generated using gene specific primers [IDO2 5'[…] ID NO: 16) and IDO1 5'[…] ID NO: 17)] and 3' primers that were gene specific and removed the termination codon [IDO[…] ID NO: 18) and IDO1 minus stop [NT] ID NO: 19)]. The IDO1 and 2 coding regions where then cloned in-frame with the […] carboxyl terminal Tag in the pcDNA4 TO vector (Invitrogen). IDO2 expressing 293 cells metabolize tryptophan and can be inhibited by 1-methyl-[…]). […] The cells were maintained in growth media plus supplements for 5 days, after which the media was harvested and subjected to analysis for the presence of kynurenine.

[1] = system: allogeneic mouse concepti; conditions: Mellor et al. 2001; Munn et al. 1998; cited from earlier work
IDO1 = molecular target: T2, IDO1 (Mus musculus, UniProt P28776); format: cell-based, murine
T2 construct: The complete coding regions of murine IDO1 and IDO2 were cloned in-frame with the V5/His TAG coding region in pcDNA4/TO; expressed in transfected cells; host or cells: T-REx-293 cells (Invitrogen), pcDNA4/TO-muIDO1, doxycycline-induced
Experimental: This assay measures the product of the indoleamine 2,3-dioxygenase conversion of L-tryptophan to N-formyl-kynurenine by acid hydrolysis to kynurenine, which is measured indirectly though the absorbance (480 nm) of imine produced by the reaction of the aromatic amino group of klynurenine with p-dimethylaminobenzaldehyde (Ehrlich's reagent) as described by Takikawa et al. (J. Biol. Chem. (1988) 263:2041-2048). Typically, 200 μL of media from the test sample is combined with 12.5 μL of 30% TCA and incubated at 50° C. for 30 minutes. Evaporation was avoided by sealing the rim of the plate or tubes with parafilm. Samples are clarified by centrifugation for 10 minutes at 3-10K rpm. 100 μL of the supernatant was removed to a fresh well in an assay plate and mixed with 100 μL of fresh Ehrlich's reagent (2% p-dimethylaminobenzaldehyde w/v with glacial acetic acid). The plates were incubated for 10-30 minutes at room temperature and the absorbance was read at 490 nm. Typically, assays were performed in triplicate and the data analyzed using Excel software program (Microsoft). Background/control samples were typically derived from media from uninduced cells or cells that lack IDO1/2 expression vectors. Typically, control values were averaged and subtracted from the sample values. […]

IDO2 activation of LIP = assay: Western blot of LIP (NFIL-6) expression in IDO2 expressing T-REx cells; format: cell-based; conditions: for inhibition of IDO2 activation of LIP: Western blot (FIG. 9B)
Experimental: T-REx™ cells (control) and T-REx™ cells expressing IDO1 were either uninduced or induced with doxycycline in the presence or absence of added tryptophan (100 μM). […] T-REx™ cells (control) and T-REx™ cells expressing IDO2 were either uninduced or induced with doxycycline in the presence or absence of added tryptophan. Cells were also optionally treated with the D, L and mixed DL racemic isomers of 1-methyl-tryptophan, (1M-D-T, 1M-L-T and 1M-LD-T, respectively). […] T-REx™ cells expressing IDO2 were either uninduced or induced with doxycycline in the presence or absence of added tryptophan.
Cell lysates were prepared as follows: Cells were removed from the dish by scrapping or pipetting in PBS and collected by centrifugation (2000 rpm/5 minutes). The supernatant was discarded and the cell pellet was lysed in RIPA buffer [50 mM Tris-HCl pH 7.4/150 mM NaCl/1% Triton x-100/1% Sodium deoxycholate/0.1% SDS] plus a protease inhibitor cocktail (Calbiochem Cat #539134). Typically 5×10^5 cells were resuspended in 200 μL of RIPA buffer. Cells lysates were vortexed and incubated on ice or frozen at −20° C. until use. Prior to use lysates were clarified by centrifugation (10,000 rpm/15 minutes) and heat denatured at 95° C. in SDS/sample buffer (100 mM Tris/25% glycerol/2% SDS/0.01% bromophenol blue/25 mM DTT). Proteins were separated by PAGE using NuPAGE® Gels (Invitrogen) and transferred at 100 Volts on to Immobilon-NC Nitrocellulose membranes (Millipore, Billerica, Mass., Cat #HAHY00010) in transfer buffer (25 mM Tris pH 8.3/192 mM glycine/20% methanol). […] For secondary antibody applications, the secondary antibody containing HRP was added in blocking buffer at the appropriate dilution, incubated by shaking at room temperature for 1 hour, and washed 5-6 times in PBS/0.1% Tween. The western membranes were developed by Chemiluminescence using SuperSignal® West Pico substrate (Pierce, Rockford, Ill., Cat #34078), exposed to autography film for an appropriate period of time (3 seconds to 18 hours), and developed.

tumor = conditions: background statement; listed as L-1MT; cited from earlier work
[2] = system: purified recIDO2 proteins (rmuIDO2 or rhuIDO2); assay: Enzyme assay of purified recombinant IDO2 (kynurenine formed from L-tryptophan); format: biochemical, murine and human; conditions: varying amounts 0-100 μM (FIG. 25)
Experimental: IDO2 activity was measured as the amount of kynurenine formed from L-tryptophan. The standard assay conditions consisted of a mixture containing 50 mM Pipes pH 6.5, between 50 and 600 nM of rmuIDO2 or rhuIDO2 (where 100 nM of rIDO2 is approximately 5.5 μg protein per mL reaction), 200 U catalase (0.2 mg/mL, sp act. ˜1000 U/mg), 200 μM L-tryptophan, 10 μM methylene blue and 20 mM ascorbic acid. The mixture was incubated at various times ranging from 15 minutes to 4 hours at 37° C. before the reaction was stopped by adding trichloroacetic acid (TCA) to 3% final. The samples were then heated to 50-60° C. for 30 minutes to convert N-formyl-kynureneine to kynurenine, clarified by centrifugation, and supernatants (100 μL) were removed to a new dish, mixed with 100 μL Ehrlich's reagent (2% p-dimethylaminobenzaldehyde w/v in glacial acetic acid), and incubated 10-30 minutes at room temperature. Absorbance at 490 nm was determined on a plate reader and the data collected and analyzed using Excel software (Microsoft). Typically, samples were analyzed in triplicate and control values were typically averaged and subtracted from sample values. Enzyme activity was estimated based on the conversion of tryptophan to kynurenine using linear regression analysis based on an absorbance standard curve derived from assay measurements on known amounts of kynurenine.

T2 sequence (P28776 whole entry): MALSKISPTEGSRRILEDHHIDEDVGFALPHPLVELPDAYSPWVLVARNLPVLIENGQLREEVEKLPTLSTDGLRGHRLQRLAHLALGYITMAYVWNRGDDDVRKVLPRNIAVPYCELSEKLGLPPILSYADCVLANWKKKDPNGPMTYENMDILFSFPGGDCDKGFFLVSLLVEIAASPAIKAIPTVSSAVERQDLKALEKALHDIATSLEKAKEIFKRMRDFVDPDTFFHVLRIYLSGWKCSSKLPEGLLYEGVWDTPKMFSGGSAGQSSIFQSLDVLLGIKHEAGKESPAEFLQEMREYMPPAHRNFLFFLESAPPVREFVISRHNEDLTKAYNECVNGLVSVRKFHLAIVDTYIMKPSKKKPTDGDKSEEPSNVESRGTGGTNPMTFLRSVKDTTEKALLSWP

kynurenine production in IDO2 expressing cells (IDO2): no changes in kynurenine levels
SMILES: Cn1cc(CC(N)C(=O)O)c2ccccc21 (racemic) [1M-LD-T, 1-Methyl-DL-Tryptophan]
rejection of allogeneic mouse concepti [1]: elicit MHC-restricted and T cell-mediated rejection of allogeneic mouse concepti

SMILES: CN1C(=O)C(Cc2c[nH]c3ccccc23)NC1=S (centres unmarked) [MTH, 5-(indol-3-methyl)-3-methyl-2-thio-Hydantoin]
toxicity of inhibitor to the cells (IDO1): not toxic to the cells
kynurenine production in IDO1 expressing cells (IDO1; doxycycline-induced T-REx cells, increasing concentrations, 5 days (FIG. 8A)): decrease in kynurenine production in the IDO1 expressing cells was observed in a dose dependent manner

SMILES: Cn1cc(C[C@H](N)C(=O)O)c2ccccc21 [1M-L-T, 1-Methyl-L-Tryptophan]
kynurenine production in IDO2 expressing cells (IDO2): no changes in kynurenine levels
inhibition of IDO2 activation of LIP (IDO2 activation of LIP): to a lesser extent
antitumor activity (tumor): exhibits a characteristic pattern of antitumor activities; also recorded: effective at inhibiting IDO1 activity and tumor progression

SMILES: Cn1cc(C[C@@H](N)C(=O)O)c2ccccc21 [1M-D-T, 1-Methyl-D-Tryptophan]
inhibition of purified recIDO2 proteins [2]: inhibited
kynurenine production in IDO2 expressing cells (IDO2): decrease in kynurenine production in the IDO2 expressing cells was observed only with 1M-D-T in a dose dependent manner
inhibition of IDO2 activation of LIP (IDO2 activation of LIP): inhibited
activation of GCN2 kinase and subsequent altered LIP expression (IDO2 activation of LIP; summary statement): blocks the activation of GCN2 kinase and subsequent altered LIP expression

— patent US8436151B2, “Indoleamine 2,3-dioxygenase-2 antibodies” (Lankenau Institute for Medical Research, priority 2006, dated 2013)
